Assays:
[1] = target: T1, Peroxisome proliferator-activated receptor alpha (Homo sapiens, UniProt Q07869); test: Binding affinity of compound to human peroxisome proliferator-activated receptor alpha was determined by competitive binding assay
T1 sequence (Q07869 whole entry): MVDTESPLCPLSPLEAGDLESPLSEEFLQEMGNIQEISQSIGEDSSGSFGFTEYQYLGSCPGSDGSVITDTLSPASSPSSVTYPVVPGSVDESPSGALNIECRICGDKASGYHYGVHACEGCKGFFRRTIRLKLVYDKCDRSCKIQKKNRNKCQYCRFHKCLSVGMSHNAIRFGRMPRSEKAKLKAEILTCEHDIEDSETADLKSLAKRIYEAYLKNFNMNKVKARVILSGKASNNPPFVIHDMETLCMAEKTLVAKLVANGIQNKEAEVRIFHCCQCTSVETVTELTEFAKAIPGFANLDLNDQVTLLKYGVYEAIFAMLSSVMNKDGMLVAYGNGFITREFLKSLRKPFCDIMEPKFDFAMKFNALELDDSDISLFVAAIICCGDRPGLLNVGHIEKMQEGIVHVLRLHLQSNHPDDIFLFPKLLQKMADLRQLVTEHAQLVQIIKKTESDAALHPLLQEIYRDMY

[2] = target: T1, Peroxisome proliferator-activated receptor alpha; test: Compound was tested for half maximum transactivation activity of human peroxisome proliferator-activated receptor alpha; type: functional

Structure (SMILES)	EC50 [1]	EC50 [2]
CC[C@@H](Cc1ccc(OC)c(C(=O)NCc2ccc(C(F)(F)F)cc2)c1)C(=O)O	740 nM	
CC[C@H](Cc1ccc(OC)c(C(=O)NCc2ccc(C(F)(F)F)cc2)c1)C(=O)O	24000 nM	1500 nM
